Experimental data from patent publication US12286442B2, “Methods and materials for increasing transcription factor eb polypeptide levels” (University of Pittsburgh—Of the Commonwealth System of …, priority 2019, dated 2025).
“Also recorded” adds a separate entry of the source.

How the values were obtained:
TFEB [1] = assay: High content screen measuring TFEB nuclear accumulation (TFEB nuclear/cytosol ratio) in BEAS-2B cells stably expressing TFEB-EGFP; type: cell-based, human; conditions: 18 hours incubation
In short: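 BEAS-2B cells stably expressing TFEB-EGFP (~2300–2500 per well) pre-incubated 8 hours, then exposed to serially diluted compounds (DMEM low glucose, 2% FBS) for 18 hours, PFA-fixed and DAPI-stained. Imaged nuclear (DAPI mask) vs cytosolic (expanded mask) TFEB-GFP; activity = minimal concentration raising nuclear/cytosol ratio by 25%.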

BEAS-2B cells = assay: Toxicity: compound concentration needed to induce greater than 50 percent of cell loss; type: cell-based, human; conditions: 18 hours incubation
In short: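 BEAS-2B cells stably expressing TFEB-EGFP treated with serial compound dilutions for 18 h, then PFA-fixed, DAPI-stained and imaged. Toxicity scored as the concentration causing >50% cell loss, binned as ≥25 μM, <25 and >1 μM, or ≤1 μM ("+++").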

[2] = system: lysosomal protein gene expression; assay: Lysosomal protein gene expression in Beas2B cells; type: cell-based, human; conditions: 10 μM for 24 hours
Description: (§1) FIGS. 5A-B. Compound 133 and Compound 115 increased lysosomal protein expression and secretion. A. Beas2B cells were treated with Cmpd. 133 at 10 μM for 24 hours. Cells then were collected and assayed for lysosomal protein gene expression. B. Beas2B cells were treated with Cmpd. 115 at the indicated concentration for 18 hours. Secreted b-hexosaminidase activity (a lysosomal enzyme) then was measured and normalized with cellular b-hexosaminidase activity.

liver lysosomes = assay: Liver lysosomal activity in mice (dextran blue confocal microscopy, Lamp2 immunostaining); type: in vivo; conditions: female C57BL6 mice, i.p. for 4 days, 50 mg/kg/d or 30 mg/kg/day; for liver lysosomal dextran blue signal (lysosomal number and activity): liver 24 hours after i.v. dextran blue; for liver Lamp2 staining: liver slides
Description: FIG. 7. Compound 15 increases liver lysosomal activity. Female C57BL6 mice were intraperitoneally (i.p.) injected with Cmpd. 15 (50 mg/kg/d) for 4 days. Mice were then intravenously (i.v.) injected with dextran blue. 24 hours later, mice were sacrificed, and livers were removed and imaged through confocal microscopy. White fluorescent signal indicates dextran blue within lysosome and provides a measure of lysosomal number and activity within the hepatic tissue (Upper panels). […] Scale bar: 50 microns.
Female C57BL6 mice were i.p. injected with Compound 15 (30 mg/kg/day) for 4 days. Mice were then i.v. injected with dextran blue. 24 hours later, mice were sacrificed, and liver samples were removed and imaged through confocal microscopy.

[3] = system: b-hexosaminidase (a lysosomal enzyme); assay: Secreted b-hexosaminidase activity normalized with cellular b-hexosaminidase activity in Beas2B cells; type: cell-based, human; conditions: indicated concentration, 18 hours
Description: as §1

TFEB [4] = assay: Immunoblotting for TFEB-GFP protein levels in MLE12 cells stably expressing TFEB-EGFP; type: cell-based, murine; conditions: dose dependent, 18 hours / 24 hours
Description: (§2) FIGS. 2A-C. BC1753 increases TFEB polypeptide levels. A. The structure of BC1753 is provided. B. MLE12 cells stably expressing TFEB-EGFP were treated with the indicated amounts of BC1753 for 24 hours before immunoblotting for TFEB-GFP and β-actin. C. MLE12 cells stably expressing TFEB-EGFP were treated with the indicated amounts of BC1753 for 24 hours before imaging by confocal microscopy (scale bar=10 μm).
(§3) BC1753 (FIG. 2A) was tested for its ability to increase TFEB polypeptide levels. Briefly, murine lung epithelial cells (MLE12) stably expressing TFEB-EGFP were treated with BC1753 in a dose dependent manner for 18 hours. Cells were then collected and assayed by immunoblotting for TFEB-GFP protein levels (FIG. 2B). Murine lung epithelial cells (MLE12) stably expressing TFEB-EGFP were treated with […] in a dose dependent manner for 18 hours. Cells were then fixed with 4% PFA followed by DAPI staining. TFEB localization was imaged on the GFP channel along with the DAPI signal using a Nikon A1 confocal microscope (FIG. 2C).

TFEB [5] = assay: Confocal imaging of TFEB localization in MLE12 cells stably expressing TFEB-EGFP; type: cell-based, murine; conditions: dose dependent, 18 hours / 24 hours
Description: as §2, §3

GFP-72Q (Huntingtin) = assay: GFP-Huntingtin levels in SH5Y cells stably transfected with GFP-72Q (confocal imaging, immunoblot); type: cell-based; conditions: SH5Y cells stably expressing GFP-Huntingtin (72Q), indicated amounts, 24 hours
Description: FIGS. 6A-B. Compound 178 reduced Huntingtin gene expression. A-B. SH5Y cells stably transfected with GFP-72Q (Huntingtin) were treated with the indicated amounts of Cmpd. 178 for 24 hours. Cells then were imaged with a confocal microscope or collected and assayed for protein expression using a GFP-Huntingtin immunoblot.
Compound 178 (BC1834) was tested for the ability to reduce Huntingtin polypeptide levels within cells. Briefly, Compound 178 was administered to SH5Y cells stably expressing GFP-Huntingtin (72Q).

Beas2B cells = assay: Lysosome quantity in Beas2B cells (light microscope, lysotracker Red confocal microscopy); type: cell-based, human; conditions: 18 hours, 1 μM or indicated concentrations
Description: FIGS. 4A-B. Compound 178 (BC1834) and Compound 160 (BC18200) increased lysosome quantity. A. Beas2B cells were treated with Cmpd. 178, Cmpd. 160, or the GSK3b inhibitor TWS119 (1 μM for 18 hours). Cells were then imaged through light microscope. B. Beas2B cells were treated with Cmpd. 178 for 18 hours at the indicated concentrations. Cells were then stained with lysotracker Red (100 nM) for 30 minutes. Cells then were washed and imaged through confocal microscopy.

| SMILES | efficacy (minimal compound concentration needed to increase TFEB nuclear/cytosol ratio by 25%) (TFEB [1]) | toxicity (compound concentration needed to induce greater than 50 percent of cell loss) (BEAS-2B cells) | further results |
| --- | --- | --- | --- |
| c1cnc2nc(-c3ccncc3)nc(Nc3ccc4c(c3)OCO4)c2c1 [Compound 133] | +++ (“+++” equals ≤1 μM) | + (cell loss of greater than 50 percent at a concentration that equals or is greater than 25 μM was represented as) | lysosomal protein expression [2]: increased |
| c1ccc2c(Nc3ccc4[nH]ccc4c3)nc(-c3ccncc3)nc2c1 [Compound 15] | +++ (“+++” equals ≤1 μM) | + (cell loss of greater than 50 percent at a concentration that equals or is greater than 25 μM was represented as) | liver lysosomal dextran blue signal (lysosomal number and activity) (liver lysosomes): increases; liver Lamp2 staining (liver lysosomes): enhanced signals |
| c1ccc2c(Nc3ccc4ccncc4c3)nc(-c3ccncc3)nc2c1 [Compound 13] | + (“+” equals >25 μM) | + (cell loss of greater than 50 percent at a concentration that equals or is greater than 25 μM was represented as) | liver lysosomal dextran blue signal (lysosomal number and activity) (liver lysosomes): drastically increased; liver Lamp2 staining (liver lysosomes): drastically increased |
| COc1cccc2c(Nc3ccc4[nH]ccc4c3)nc(-c3ccncc3)nc12 [Compound 115] | + (“+” equals >25 μM) | + (cell loss of greater than 50 percent at a concentration that equals or is greater than 25 μM was represented as) | secretion of the lysosomal enzyme beta hexosaminidase [3]: increased |
| COc1ccc(-n2c(=O)c3ccc(C(=O)NCCc4ccccc4)cc3n(CC(=O)Nc3ccc(C)cc3)c2=O)cc1 [BC1753] | – | – | total TFEB polypeptide levels within cells (TFEB-GFP immunoblot) (TFEB [4]): increases; also recorded: drastically increased; nuclear TFEB polypeptide accumulation (confocal microscopy) (TFEB [5]): increased |
| Fc1cccc(Nc2nc(-c3ccncc3)nc3ccccc23)c1 [Compound 178] | +++ (“+++” equals ≤1 μM) | + (cell loss of greater than 50 percent at a concentration that equals or is greater than 25 μM was represented as) | GFP-Huntingtin polypeptide levels (GFP-72Q (Huntingtin)): dose dependently reduced; lysosome quantity (Beas2B cells): increase; secretion of the lysosomal enzyme beta hexosaminidase [3]: increase; lysosomal protein expression [2]: increase |
| c1ccc2c(Nc3ccc4[nH]ncc4c3)nc(-c3ccncc3)nc2c1 [Compound 160] | +++ (“+++” equals ≤1 μM) | ++ (cell loss of greater than 50 percent at a concentration less than 25 μM and greater than 1 μM was represented as) | lysosome quantity (Beas2B cells): increase; secretion of the lysosomal enzyme beta hexosaminidase [3]: increase; lysosomal protein expression [2]: increase |
| c1ccc(-c2cc3ncccc3c(Nc3ccc4nc(C5CC5)sc4c3)n2)nc1 [Compound 248] | ++ (“++” equals between ≤25 μM and >1 μM) | + (cell loss of greater than 50 percent at a concentration that equals or is greater than 25 μM was represented as) | – |
| Fc1cccc2c(Nc3ccc4ncsc4c3)nc(-c3ccncc3)nc12 [Compound 372] | +++ (“+++” equals ≤1 μM) | + (cell loss of greater than 50 percent at a concentration that equals or is greater than 25 μM was represented as) | – |
| Fc1cc(Nc2nc(N3CCOCC3)nc3ncccc23)cc2cc[nH]c12 [Compound 384] | +++ (“+++” equals ≤1 μM) | + (cell loss of greater than 50 percent at a concentration that equals or is greater than 25 μM was represented as) | – |
| c1cnc2ccc(Nc3nc(-c4ccncc4)nc4ccccc34)cc2c1 [Compound 57] | +++ (“+++” equals ≤1 μM) | + (cell loss of greater than 50 percent at a concentration that equals or is greater than 25 μM was represented as) | – |
| CCc1ccc(-n2c(=O)c3ccccc3n(Cc3cccc(F)c3)c2=O)cc1 [Compound 237] | ++ (“++” equals between ≤25 μM and >1 μM) | + (cell loss of greater than 50 percent at a concentration that equals or is greater than 25 μM was represented as) | – |
| c1ccc2c(Nc3ccc4[nH]ccc4c3)nc(-c3cncs3)nc2c1 [Compound 78] | ++ (“++” equals between ≤25 μM and >1 μM) | + (cell loss of greater than 50 percent at a concentration that equals or is greater than 25 μM was represented as) | – |
| Fc1cccc(Nc2nc(-c3ccncc3)cc3ccccc23)c1 [Compound 43] | ++ (“++” equals between ≤25 μM and >1 μM) | + (cell loss of greater than 50 percent at a concentration that equals or is greater than 25 μM was represented as) | – |
| FC(F)(F)c1nc2ccc(Nc3nc(-c4ccncc4)nc4ccccc34)cc2o1 [Compound 96] | + (“+” equals >25 μM) | + (cell loss of greater than 50 percent at a concentration that equals or is greater than 25 μM was represented as) | – |
| c1cc(-c2nc(Nc3ccc4nc(C5CC5)sc4c3)c3cnccc3n2)ccn1 [Compound 121] | + (“+” equals >25 μM) | + (cell loss of greater than 50 percent at a concentration that equals or is greater than 25 μM was represented as) | – |
| CCCCNc1nc(-c2ccncc2)nc2ccccc12 [Compound 164] | + (“+” equals >25 μM) | + (cell loss of greater than 50 percent at a concentration that equals or is greater than 25 μM was represented as) | – |
